In patent US9382228B2 (priority 2013, dated 2016):

Assays:
[1] = tested on: osteoclast precursors; assay: cells; assay type: cell-based; settings: read-out: Osteoclast assay
[2] = tested on: M-NFS-60 cells; assay: cells; settings: 67 h, read-out: M-NFS-60 cell proliferation
Method: M-NFS-6 Cell Proliferation Assay
A serial dilution of test compound was dispensed into a 384-well black clear bottom plate (Corning, Corning, N.Y.). Two thousand five hundred cells were added per well in 50 μL complete growth medium. […] IC50 values were calculated from a series of percent inhibition values determined at a range of inhibitor concentrations using software routines as implemented in the GraphPad Prism software package.

[3] = tested on: phospho-FMS in THP-1 cells; assay: cells; settings: Homo sapiens, THP-1, read-out: pFMS inhibition in THP-1 cells
[4] = molecular target: T1, unphosphorylated c-FMS kinase (uFMS, Seq. ID no. 1) (Homo sapiens, UniProt P07333); assay: biochemical; settings: uFMS, enzymatic assay, ATP 500 μM
T1 sequence (P07333 538-972): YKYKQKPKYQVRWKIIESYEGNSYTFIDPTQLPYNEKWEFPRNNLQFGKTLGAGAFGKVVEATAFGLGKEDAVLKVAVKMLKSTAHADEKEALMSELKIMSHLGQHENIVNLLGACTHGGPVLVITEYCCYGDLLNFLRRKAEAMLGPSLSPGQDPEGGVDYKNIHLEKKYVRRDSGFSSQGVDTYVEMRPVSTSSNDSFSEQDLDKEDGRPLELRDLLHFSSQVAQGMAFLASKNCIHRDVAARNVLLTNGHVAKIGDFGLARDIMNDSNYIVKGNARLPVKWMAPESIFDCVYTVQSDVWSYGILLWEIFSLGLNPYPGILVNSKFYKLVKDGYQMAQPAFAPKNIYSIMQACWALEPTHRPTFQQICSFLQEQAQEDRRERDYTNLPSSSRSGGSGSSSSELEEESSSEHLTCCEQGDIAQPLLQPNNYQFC

[5] = molecular target: unphosphorylated c-KIT kinase (uKIT, Seq. ID no. 2) (Homo sapiens, UniProt P10721); assay: biochemical; settings: uKIT, enzymatic assay, ATP 2000 μM
unphosphorylated c-KIT kinase (uKIT, Seq. ID no. 2), sequence (P10721 with tags, fused parts or gaps): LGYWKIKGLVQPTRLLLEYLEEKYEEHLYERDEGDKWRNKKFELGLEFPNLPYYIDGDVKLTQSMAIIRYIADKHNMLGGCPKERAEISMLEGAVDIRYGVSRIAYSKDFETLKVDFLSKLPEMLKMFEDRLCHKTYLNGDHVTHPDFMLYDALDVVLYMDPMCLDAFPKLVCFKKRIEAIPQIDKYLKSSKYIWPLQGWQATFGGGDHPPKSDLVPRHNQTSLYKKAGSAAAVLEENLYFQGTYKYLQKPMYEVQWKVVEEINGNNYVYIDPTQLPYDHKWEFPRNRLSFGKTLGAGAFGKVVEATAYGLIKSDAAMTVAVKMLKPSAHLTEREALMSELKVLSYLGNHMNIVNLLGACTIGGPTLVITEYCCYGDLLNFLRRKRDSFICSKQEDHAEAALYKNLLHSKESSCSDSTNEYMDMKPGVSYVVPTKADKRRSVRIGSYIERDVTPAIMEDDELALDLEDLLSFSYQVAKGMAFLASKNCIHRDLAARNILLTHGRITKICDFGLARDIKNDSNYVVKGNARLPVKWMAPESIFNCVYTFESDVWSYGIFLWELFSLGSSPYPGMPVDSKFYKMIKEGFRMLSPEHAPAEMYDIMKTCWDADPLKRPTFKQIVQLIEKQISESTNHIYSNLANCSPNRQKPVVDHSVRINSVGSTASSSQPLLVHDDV
Method: uKit kinase (Seq. ID No. 2) Assay
In this assay, the oxidation of NADH (thus the decrease at A340 nm) was continuously monitored spectrophometrically. […] The inhibition reaction was started by mixing serial diluted test compound with the above reaction mixture. The absorption at 340 nm was monitored continuously for 4 hours at 30° C. on Synergy 2 plate reader (BioTech).

[6] = molecular target: unphosphorylated PDGFRβ kinase (uPDGFRβ, Seq. ID No. 3) (Homo sapiens, UniProt P09619); assay: biochemical; settings: uPDGFRb, enzymatic assay, ATP 500 μM
unphosphorylated PDGFRβ kinase (uPDGFRβ, Seq. ID No. 3), sequence (P09619 557-1106): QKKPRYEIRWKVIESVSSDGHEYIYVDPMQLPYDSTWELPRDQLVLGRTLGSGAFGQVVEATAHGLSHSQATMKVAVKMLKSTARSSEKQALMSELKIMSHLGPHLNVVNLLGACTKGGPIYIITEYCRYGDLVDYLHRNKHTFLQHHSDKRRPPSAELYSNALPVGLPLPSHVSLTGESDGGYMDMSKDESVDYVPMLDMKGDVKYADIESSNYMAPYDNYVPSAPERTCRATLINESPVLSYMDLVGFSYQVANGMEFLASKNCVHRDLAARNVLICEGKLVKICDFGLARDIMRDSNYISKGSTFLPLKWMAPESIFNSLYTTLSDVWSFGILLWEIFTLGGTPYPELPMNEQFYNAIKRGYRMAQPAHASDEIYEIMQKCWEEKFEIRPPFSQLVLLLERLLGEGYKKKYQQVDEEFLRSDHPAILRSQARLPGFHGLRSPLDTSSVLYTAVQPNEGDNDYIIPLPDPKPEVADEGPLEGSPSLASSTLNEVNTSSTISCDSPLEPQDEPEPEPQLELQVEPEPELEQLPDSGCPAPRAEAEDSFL
Method: Unphosphorylated PDGFRβ (uPDGFRβ) Kinase (Seq. ID No. 3) Assay
In this assay, the oxidation of NADH (thus the decrease at A340 nm) was continuously monitored spectrophometrically. […] The inhibition reaction was started by mixing serial diluted test compound with the above reaction mixture. The absorption at 340 nm was monitored continuously for 4 h at 30° C. on a Polarstar Optima or Synergy 2 plate reader. The reaction rate was calculated using the 1.5 to 2.5 h time frame. Percent inhibition was obtained by comparison of reaction rate with that of a control (i.e. with no test compound). IC50 values were calculated from a series of percent inhibition values determined at a range of inhibitor concentrations using software routines as implemented in the GraphPad Prism software package.

CCn1cc(-c2cc(Oc3ccc(NC(=O)NC(=O)C(C)(C)OC)nc3)ccn2)cn1 [Example 170, N-((5-((2-(1-ethyl-1H-pyrazol-4-yl)pyridin-4-yl)oxy)pyridin-2-yl)carbamoyl)-2-methoxy-2-methylpropanamide]
IC50 [1]: < 10 nM
IC50 [2]: < 10 nM
IC50 [3]: 10 to 100 nM
IC50 [4]: < 10 nM
IC50 [5]: 100 to 1000 nM
IC50 [6]: > 1000 nM

Cc1nc(NC(=O)NC(=O)C(C)(C)C)ccc1Oc1ccnc(-c2c[nH]nn2)c1 [Example 171, N-((5-((2-(1H-1,2,3-triazol-4-yl)pyridin-4-yl)oxy)-6-methylpyridin-2-yl)carbamoyl)pivalamide]
IC50 [1]: 10 to 100 nM
IC50 [2]: 10 to 100 nM
IC50 [3]: 10 to 100 nM
IC50 [4]: < 10 nM
IC50 [5]: > 1000 nM
IC50 [6]: > 1000 nM

C=CCn1cc(-c2cc(Oc3ccc(NC(=O)NC(=O)C(C)(C)OC)nc3)ccn2)cn1 [Example 172, N-((5-((2-(1-allyl-1H-pyrazol-4-yl)pyridin-4-yl)oxy)pyridin-2-yl)carbamoyl)-2-methoxy-2-methylpropanamide]
IC50 [1]: < 10 nM
IC50 [2]: 10 to 100 nM
IC50 [3]: < 10 nM
IC50 [4]: < 10 nM
IC50 [5]: 100 to 1000 nM
IC50 [6]: > 1000 nM

COC(C)(C)C(=O)NC(=O)Nc1ccc(Oc2ccnc(-c3cnc(C(C)C)[nH]3)c2)cn1 [Example 173, N-((5-((2-(2-isopropyl-1H-imidazol-5-yl)pyridin-4-yl)oxy)pyridin-2-yl)carbamoyl)-2-methoxy-2-methylpropanamide]
IC50 [1]: 10 to 100 nM
IC50 [2]: 10 to 100 nM
IC50 [3]: < 10 nM
IC50 [4]: 10 to 100 nM
IC50 [5]: > 1000 nM
IC50 [6]: > 1000 nM

Cn1cc(-c2cc(Oc3cnc(NC(=O)NC(=O)C(C)(C)C)nc3)ccn2)cn1 [Example 174, N-((5-((2-(1-methyl-1H-pyrazol-4-yl)pyridin-4-yl)oxy)pyrimidin-2-yl)carbamoyl)pivalamide]
IC50 [1]: 10 to 100 nM
IC50 [2]: 10 to 100 nM
IC50 [3]: 10 to 100 nM
IC50 [4]: 10 to 100 nM
IC50 [5]: 100 to 1000 nM
IC50 [6]: > 1000 nM

Cn1cc(-c2cc(Oc3ccc(NC(=O)NC(=O)C4(C)CCOCC4)nc3)ccn2)cn1 [Example 175, 4-methyl-N-((5-((2-(1-methyl-1H-pyrazol-4-yl)pyridin-4-yl)oxy)pyridin-2-yl)carbamoyl)tetrahydro-2H-pyran-4-carboxamide]
IC50 [1]: 10 to 100 nM
IC50 [2]: 10 to 100 nM
IC50 [3]: 10 to 100 nM
IC50 [4]: < 10 nM
IC50 [5]: 100 to 1000 nM
IC50 [6]: 100 to 1000 nM

Cn1cc(-c2cc(Oc3cnc(NC(=O)NC(=O)C(C)(C)C)cn3)ccn2)cn1 [Example 176, N-((5-((2-(1-methyl-1H-pyrazol-4-yl)pyridin-4-yl)oxy)pyrazin-2-yl)carbamoyl)pivalamide]
IC50 [1]: 10 to 100 nM
IC50 [2]: > 1000 nM
IC50 [3]: 10 to 100 nM
IC50 [4]: 10 to 100 nM
IC50 [5]: > 1000 nM
IC50 [6]: > 1000 nM
